“And” between values parts separate entries of the source, which are not always exact repeats. Equal values may be shown once.
Assays:
Format in all cases: cell-based, human
3D HSC mono-culture [1] = test: APAP toxicity on HSC; conditions: APAP 0.5-80 mM, 24 h
Description: APAP toxicity assay was performed in 3D HepaRG/co-culture as well as in 3D HepaRG monoculture. For 24 h, starting at day 20, cells were exposed to a range of APAP concentrations between 0.5 and 80 mM, keeping cells with the solvent (0.1% DMSO) as a control. For some experiments the culture medium was supplemented with 2.5 mM valproic acid (VPA sodium salt, Sigma-Aldrich) or with cytokine mixture (Raicevic et al.,2012)-interleukin (IL)-1β 25 ng/mL (Peprotech, Rocky Hill, N.J., USA), interferon (IFN)-γ 10^3 U/mL, tumor necrosis factor (TNF)-a 50 ng/mL, and IFN-α 3·10^3 U/mL (all from Prospec, Inc., East Brunswick, N.J., USA). For the recovery assay, at the end of APAP incubation, cells were washed using HepaRG culture 0% DMSO medium and kept in the same medium for 3 more days. […]
We investigated the effect of APAP on the different cell types by measurement of the two major energy producing pathways assessing at the mitochondrial functional level. For that purpose, we measured the Oxygen Consumption Rate (OCR) and Glycolisis (through proton production—Extracellular Acidification rate, ECAR) using the XF Cell Mito Stress Test Kit (Seahorse Biosciences) 0, 12 and 24 hours of APAP incubation in the three 3D cultures. […]

3D HepaRG/HSC co-culture [2] = test: mRNA expression of HSC activation markers (qPCR) after APAP incubation; conditions: additional 3 days in culture upon APAP washout
Description: APAP toxicity assay was performed in 3D HepaRG/co-culture as well as in 3D HepaRG monoculture. For 24 h, starting at day 20, cells were exposed to a range of APAP concentrations between 0.5 and 80 mM, keeping cells with the solvent (0.1% DMSO) as a control. For some experiments the culture medium was supplemented with 2.5 mM valproic acid (VPA sodium salt, Sigma-Aldrich) or with cytokine mixture (Raicevic et al.,2012)-interleukin (IL)-1β 25 ng/mL (Peprotech, Rocky Hill, N.J., USA), interferon (IFN)-γ 10^3 U/mL, tumor necrosis factor (TNF)-a 50 ng/mL, and IFN-α 3·10^3 U/mL (all from Prospec, Inc., East Brunswick, N.J., USA). For the recovery assay, at the end of APAP incubation, cells were washed using HepaRG culture 0% DMSO medium and kept in the same medium for 3 more days.
At the end of the incubation period, 5 spheroids per condition were pooled and lysed for RNA analyses, while the remaining spheroids per condition were lysed individually for viability analysis using the Cell titer Glo kit (Promega) for ATP measurements following the instructions of the manufacturer.
Total RNA was extracted from cells using the ReliaPrep RNA Cell Miniprep System (Promega, Madison, Wis.). Reverse-transcription using the Revert Aid Kit (ThermoFisher Scientific, St. Leon-Rot, Germany) allowed conversion of RNA to cDNA. The RT reaction was performed at 25° C. for ten minutes followed by 30 minutes at 50° C. For quantitative real-time polymerase chain reaction (qPCR), GoTaq QPCR Master Mix with BRYTE green (Promega, Madison, Wis.) was used, subjected to qPCR in a 7500 real time PCR system and analysed using System SDS software v2.0.5 (Applied Biosystems), using GAPDH for normalisation.

3D HSC mono-culture [3] = test: as above; conditions: 20 mM APAP, 24h, Assays 1-3
3D HepaRG mono-culture = test: Pro-collagen measurement in culture supernatant (Type I C-Peptide); conditions: upon APAP incubation, 24 h
Description: (§1) Samples for pro-collagen measurement were five times concentrated using 10 kD Vivaspin 500 ultrafiltration columns (VWR, Radnor, Pa.), the resulting supernatant was analysed for the presence of Type I C-Peptide using the TAKARA (Chanteloup-en-Brie, France) kit.

3D HepaRG/HSC co-culture [4] = test: as above; conditions: upon APAP incubation, 24 h
Description: as §1

3D HepaRG/HSC co-culture [5] = test: Single and repeated exposure, cell viability (% ATP), serum-free medium; conditions: Homo sapiens, HepaRG, serum-free medium
Description: Culture medium. Day 0 cells were resuspended in HepaRG thawing medium and from day 1 to 21 cells were kept in the HepaRG culture medium 0% DMSO, until day 8. For the repeated versus single compound exposure assays, on day 8, the HepaRG culture medium 0% DMSO was replaced by the Serum-free HepaRG maintenance medium described in Klein et. al. 2013 (HepaRG Induction/Toxicity medium, DMSO 0.5% (v/v), 2 μg/ml of epidermal growth factor and 10 μg/ml of hepatocyte growth factor) and kept in this medium until the end of culture.
(§2) Single and repeated exposure. For the single and repeated compound exposure cell spheroids (3D HepaRG/HSC, 3D HepaRG and 3D HSC) were exposed respectively on day 20 for 24 h or every second day from day 8 to day 21 in serum-free medium with no additional solvent. Cells were exposed to a range of 8 concentrations between 0.5 and 80 mM for APAP single-dose, 0.125 and 40 mM for APAP repeated-dose, 0.3 and 500 μM Allyl Alcohol (AA, Sigma-Aldrich), 1.9 and 1000 μM Methotrexate (MTX, Pfizer, NY, USA). For the recovery assay, on day 21, cells were washed using serum-free medium and kept for 3 extra days.
Cell viability assay was performed by measuring ATP production upon individual spheroid exposure to the different concentrations of the test compound. Cell spheroids were lysed individually for viability analysis using the Cell titer Glo kit (Promega) following the instructions of the manufacturer. Luminescence values were converted into percentage of ATP by comparison with controls and converted into dose-response curves using Prism 5 software.

3D HepaRG/HSC co-culture [6] = test: Single and repeated exposure, gene expression of HSC activation markers; conditions: for HSC activation (up-regulation of activation markers, mRNA): serum-free medium
Description: as §2
For the cell culture samples, total RNA from 4-6 pooled spheroids was extracted from cells using the RNeasy Micro Kit (Qiagen, Venlo, Limburg, Netherlands). In the mouse assays, sorted HSC from different mice were lysed separately. Total RNA from tissue cultured cells was extracted using ReliaPrep RNA Cell Miniprep System (Promega).
Reverse-transcription using the Revert Aid Kit (ThermoFisher Scientific, Waltham, Massachusetts, USA) allowed conversion of RNA to cDNA. The RT reaction was performed at 25° C. for ten minutes followed by 30 minutes at 50° C. For quantitative real-time polymerase chain reaction (qPCR), GoTaq QPCR Master Mix with BRYTE green (Promega) was used, subjected to qPCR in a 7500 real time PCR system and analysed using System SDS software v2.0.5 (Applied Biosystems, Waltham, Mass., USA), using GAPDH for normalisation. Reliability of GAPDH as house-keeping gene was determined using Normfinder (Anderson et al., 2004). Fold change differences between samples were determined using the comparative Ct (δδCt) method. The expression level of different targets, relative to GAPDH (δCt) and relative to the calibrator, was given by 2^−δδCt.

SMILES: CC(=O)Nc1ccc(O)cc1 [APAP, Acetaminophen]
- toxic effect on the HSC (3D HSC mono-culture [1]): only observed at the highest concentrations
- HSC activation markers after washout (3D HepaRG/HSC co-culture [2]): decrease of the HSC activation markers
- Loxl2 mRNA fold increase (3D HSC mono-culture [3]): 1.13 +/− 0.05 fold and 0.70 +/− 0.23 fold and 0.85 +/− 0.86 fold
- collagen secretion (C-terminal pro-collagen in supernatant) (3D HepaRG mono-culture): not observed
- collagen secretion (C-terminal pro-collagen in supernatant) (3D HepaRG/HSC co-culture [4]): significant increase of collagen secretion
- EC50 (3D HepaRG/HSC co-culture [5]; repeated exposure, day 8 to day 21): 2.25 ± 0.35 mM
- EC50 (3D HepaRG/HSC co-culture [5]; single exposure, 24 h on day 20): 10.4 ± 2.3 mM
- concentration of peak HSC activation (3D HepaRG/HSC co-culture [6]; repeated exposure): 5 to 10 mM
- HSC activation (up-regulation of activation markers, mRNA) (3D HepaRG/HSC co-culture [6]; repeated exposure): toxicity and HSC activation both in single and repeated-exposure
- concentration of peak HSC activation (3D HepaRG/HSC co-culture [6]; single exposure): 20 to 40 mM
- recovery of HSC 3 days after compound washout (3D HepaRG/HSC co-culture [6]; single exposure): observed
- HSC activation (up-regulation of activation markers, mRNA) (3D HepaRG/HSC co-culture [6]; single exposure 24 h): toxicity and HSC activation both in single and repeated-exposure

From patent US20170166870A1, “HUMAN HEPATIC 3D CO-CULTURE MODEL AND USES THEREOF” (Vrije Universiteit Brussel, priority 2014, published 2017)
